Results on seven compounds are retold here after patent US9340590B2 (priority 2011, dated 2016).

The structures appear in SMILES notation. Where two headings read alike, the source gives them in different places. Positions of bridges follow the written chain, without caps; N, C: chain ends. Non-standard residues stand in square brackets, D forms with d. Residues, ends and D or L forms follow the SMILES beside them. 1Nal = N[C@@H](Cc1cccc2ccccc12)C(=O)O; 3Pal = N[C@@H](Cc1cccnc1)C(=O)O A value given as a limit tells only on which side of the number the result lay.

What all share (test): cell-based
One assay addresses hNav1.5 (Homo sapiens, UniProt Q14524). The conditions noted are these: IonWorks Quattro, read-out: IWQ Use Nav1.5. In general terms: Patch clamp records ionic current or voltage across a cell membrane.
The next assay has as its target hNav1.3 (Homo sapiens, UniProt Q9NY46). The note with it: IonWorks Quattro, read-out: IWQ Use Nav1.3.
The target in a further assay is hNav1.7 (Homo sapiens, UniProt Q15858). The assay is classed as cell-based.
Setting [1] is: IonWorks Quattro, use-dependent block, hNav1.7, read-out: IWQ Use Nav1.7.
The mark [2] stands for this setting: clamped to −110 mV, depolarized to −10 mV, 5 min after compound, n=2.

hNav1.7, sequence (Q15858 whole entry, looked up): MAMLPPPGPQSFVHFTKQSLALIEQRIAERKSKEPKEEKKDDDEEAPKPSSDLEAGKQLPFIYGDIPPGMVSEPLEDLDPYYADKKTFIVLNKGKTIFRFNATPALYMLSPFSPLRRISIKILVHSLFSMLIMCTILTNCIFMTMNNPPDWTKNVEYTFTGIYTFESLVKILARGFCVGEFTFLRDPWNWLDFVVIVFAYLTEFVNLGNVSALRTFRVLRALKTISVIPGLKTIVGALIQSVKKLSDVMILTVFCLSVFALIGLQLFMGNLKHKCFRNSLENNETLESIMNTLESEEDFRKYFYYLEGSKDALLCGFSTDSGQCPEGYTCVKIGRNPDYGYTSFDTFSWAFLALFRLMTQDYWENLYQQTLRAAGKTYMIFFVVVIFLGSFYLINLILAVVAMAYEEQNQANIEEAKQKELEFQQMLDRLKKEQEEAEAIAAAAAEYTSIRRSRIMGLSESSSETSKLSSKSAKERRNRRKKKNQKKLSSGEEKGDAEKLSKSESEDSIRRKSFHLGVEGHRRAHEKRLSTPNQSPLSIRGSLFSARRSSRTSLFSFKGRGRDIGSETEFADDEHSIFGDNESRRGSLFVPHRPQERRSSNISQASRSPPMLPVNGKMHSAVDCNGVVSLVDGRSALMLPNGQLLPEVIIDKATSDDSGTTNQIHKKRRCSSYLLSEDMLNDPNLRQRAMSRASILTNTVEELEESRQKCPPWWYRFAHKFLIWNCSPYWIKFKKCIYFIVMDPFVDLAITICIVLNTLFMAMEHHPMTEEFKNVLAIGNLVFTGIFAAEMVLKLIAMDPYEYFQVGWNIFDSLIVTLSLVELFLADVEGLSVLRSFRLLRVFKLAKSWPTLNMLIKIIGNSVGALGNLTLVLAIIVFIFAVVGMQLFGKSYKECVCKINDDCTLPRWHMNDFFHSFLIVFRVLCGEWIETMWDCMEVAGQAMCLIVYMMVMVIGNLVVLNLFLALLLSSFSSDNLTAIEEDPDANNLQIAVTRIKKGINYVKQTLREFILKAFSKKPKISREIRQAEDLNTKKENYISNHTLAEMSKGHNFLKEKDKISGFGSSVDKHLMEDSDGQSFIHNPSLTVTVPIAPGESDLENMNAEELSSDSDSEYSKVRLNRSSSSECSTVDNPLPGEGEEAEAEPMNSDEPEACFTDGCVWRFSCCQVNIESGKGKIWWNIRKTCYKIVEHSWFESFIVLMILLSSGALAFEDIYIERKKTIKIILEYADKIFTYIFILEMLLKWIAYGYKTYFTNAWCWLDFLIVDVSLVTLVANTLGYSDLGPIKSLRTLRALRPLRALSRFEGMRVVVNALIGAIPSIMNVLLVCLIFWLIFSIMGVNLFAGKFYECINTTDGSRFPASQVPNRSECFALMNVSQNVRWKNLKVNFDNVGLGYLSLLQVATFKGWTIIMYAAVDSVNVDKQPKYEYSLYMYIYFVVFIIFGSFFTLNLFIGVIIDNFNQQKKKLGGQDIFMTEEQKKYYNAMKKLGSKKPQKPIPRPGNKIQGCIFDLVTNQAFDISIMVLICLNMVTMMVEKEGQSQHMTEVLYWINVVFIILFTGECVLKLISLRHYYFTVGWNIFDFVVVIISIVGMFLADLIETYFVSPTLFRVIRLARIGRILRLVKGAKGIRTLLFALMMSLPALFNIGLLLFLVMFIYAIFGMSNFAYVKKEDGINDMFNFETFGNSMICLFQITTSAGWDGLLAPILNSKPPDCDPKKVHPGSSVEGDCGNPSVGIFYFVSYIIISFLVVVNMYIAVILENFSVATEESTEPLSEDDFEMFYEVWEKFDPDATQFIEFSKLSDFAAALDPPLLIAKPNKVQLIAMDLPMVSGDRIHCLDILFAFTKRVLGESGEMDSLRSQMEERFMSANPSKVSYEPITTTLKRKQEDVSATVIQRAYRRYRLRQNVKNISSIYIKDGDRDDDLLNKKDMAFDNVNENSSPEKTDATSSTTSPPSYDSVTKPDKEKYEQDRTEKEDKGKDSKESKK
hNav1.3, sequence (Q9NY46 whole entry, looked up): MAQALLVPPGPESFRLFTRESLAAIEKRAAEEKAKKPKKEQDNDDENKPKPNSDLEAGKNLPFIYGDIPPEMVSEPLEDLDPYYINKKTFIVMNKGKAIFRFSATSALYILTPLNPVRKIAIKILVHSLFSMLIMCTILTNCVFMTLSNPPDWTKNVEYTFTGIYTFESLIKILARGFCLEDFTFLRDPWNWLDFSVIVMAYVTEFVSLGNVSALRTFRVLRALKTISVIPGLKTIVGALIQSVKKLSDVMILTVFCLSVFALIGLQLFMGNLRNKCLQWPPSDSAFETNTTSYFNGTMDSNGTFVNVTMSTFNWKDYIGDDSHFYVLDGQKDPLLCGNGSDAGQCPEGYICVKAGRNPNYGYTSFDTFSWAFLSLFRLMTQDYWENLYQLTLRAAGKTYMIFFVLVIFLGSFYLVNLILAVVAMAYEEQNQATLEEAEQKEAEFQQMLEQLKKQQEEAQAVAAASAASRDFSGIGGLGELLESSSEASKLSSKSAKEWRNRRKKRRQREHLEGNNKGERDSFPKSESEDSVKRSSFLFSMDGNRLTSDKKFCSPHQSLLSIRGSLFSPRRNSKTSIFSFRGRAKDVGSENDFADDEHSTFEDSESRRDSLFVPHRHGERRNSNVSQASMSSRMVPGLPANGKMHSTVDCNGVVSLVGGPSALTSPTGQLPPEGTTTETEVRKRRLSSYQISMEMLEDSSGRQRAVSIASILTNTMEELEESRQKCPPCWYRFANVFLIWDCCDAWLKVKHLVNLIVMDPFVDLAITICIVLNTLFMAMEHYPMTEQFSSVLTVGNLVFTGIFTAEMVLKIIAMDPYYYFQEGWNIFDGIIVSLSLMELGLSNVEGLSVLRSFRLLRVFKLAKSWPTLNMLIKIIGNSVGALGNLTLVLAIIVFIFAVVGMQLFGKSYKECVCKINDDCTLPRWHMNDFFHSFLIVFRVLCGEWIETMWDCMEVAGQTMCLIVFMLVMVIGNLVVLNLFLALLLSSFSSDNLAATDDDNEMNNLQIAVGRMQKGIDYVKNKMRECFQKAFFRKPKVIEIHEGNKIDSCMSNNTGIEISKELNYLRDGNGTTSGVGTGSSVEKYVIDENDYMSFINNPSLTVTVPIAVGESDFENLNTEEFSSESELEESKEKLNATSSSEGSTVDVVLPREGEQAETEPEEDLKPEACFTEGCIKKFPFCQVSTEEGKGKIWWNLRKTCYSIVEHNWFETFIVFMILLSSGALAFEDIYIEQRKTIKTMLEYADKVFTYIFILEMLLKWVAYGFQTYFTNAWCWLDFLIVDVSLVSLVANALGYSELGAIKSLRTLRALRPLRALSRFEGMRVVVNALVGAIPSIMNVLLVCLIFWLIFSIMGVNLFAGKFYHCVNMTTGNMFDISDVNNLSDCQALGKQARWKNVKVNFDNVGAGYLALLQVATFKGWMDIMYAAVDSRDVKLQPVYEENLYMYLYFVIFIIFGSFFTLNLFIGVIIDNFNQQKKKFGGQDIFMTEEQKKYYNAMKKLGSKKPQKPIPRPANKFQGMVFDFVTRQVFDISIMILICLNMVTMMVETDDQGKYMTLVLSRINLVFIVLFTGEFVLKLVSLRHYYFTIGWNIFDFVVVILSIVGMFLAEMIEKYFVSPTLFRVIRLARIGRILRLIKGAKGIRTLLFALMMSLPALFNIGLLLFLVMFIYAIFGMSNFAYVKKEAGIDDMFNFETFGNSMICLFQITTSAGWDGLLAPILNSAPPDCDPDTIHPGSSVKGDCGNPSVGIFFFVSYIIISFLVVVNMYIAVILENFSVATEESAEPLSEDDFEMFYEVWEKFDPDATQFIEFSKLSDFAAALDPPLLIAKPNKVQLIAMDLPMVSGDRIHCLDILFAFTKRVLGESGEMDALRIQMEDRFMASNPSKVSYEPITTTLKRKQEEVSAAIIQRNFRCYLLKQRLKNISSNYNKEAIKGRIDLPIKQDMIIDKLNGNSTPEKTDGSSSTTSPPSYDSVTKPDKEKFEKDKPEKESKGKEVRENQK

On to `CC[C@H](C)[C@@H]1NC(=O)[C@@H]2CSSC[C@@H]3NC(=O)[C@H](C(C)C)NC(=O)[C@H](Cc4cccc5ccccc45)NC(=O)[C@H](CC(N)=O)NC(=O)[C@@H]4CCCN4C(=O)[C@H](CCCNC(=N)N)NC(=O)[C@H](CSSC[C@H](NC(=O)[C@@H](N)CC(=O)O)C(=O)N[C@@H](CC(C)C)C(=O)NCC(=O)N[C@@H](Cc4ccccc4)C(=O)N[C@@H](CCSC)C(=O)N[C@@H](CCCNC(=N)N)C(=O)N[C@@H](CCCCN)C(=O)N2)NC(=O)[C@H](CSSC[C@@H](C(=O)N[C@@H](CCCCN)C(=O)N[C@@H](Cc2ccc(O)cc2)C(=O)N[C@H](C(=O)N[C@@H](Cc2ccccc2)C(N)=O)C(C)C)NC(=O)[C@H](Cc2c[nH]c4ccccc24)NC(=O)[C@H](CCCCN)NC(=O)[C@H](Cc2c[nH]cn2)NC(=O)[C@H]([C@@H](C)O)NC(=O)[C@H](CCCNC(=N)N)NC(=O)[C@H](CO)NC3=O)NC(=O)[C@H](CCCCN)NC(=O)[C@H](CC(=O)O)NC(=O)[C@H](CC(N)=O)NC(=O)[C@H](CC(=O)O)NC(=O)[C@@H]2CCCN2C1=O` [compound 165] (H-DCLGFMRKCIPDNDKCCRPN[1Nal]VCSRTHKWCKYVF-NH2; disulfide 2-17, 9-23, 16-30), for which the IC50 on hNav1.5 (Use) was determined as 10600 nM; at hNav1.3 (Use) it was 90 nM; against hNav1.7, 80 nM.

Take `CC[C@H](C)[C@@H]1NC(=O)[C@@H]2CSSC[C@@H]3NC(=O)[C@H](C(C)C)NC(=O)[C@H](CC(C)C)NC(=O)[C@H](Cc4c[nH]c5ccccc45)NC(=O)[C@@H]4CCCN4C(=O)[C@H](CCCNC(=N)N)NC(=O)[C@H](CSSC[C@H](NC(=O)[C@@H](N)CC(=O)O)C(=O)N[C@@H](CC(C)C)C(=O)NCC(=O)N[C@@H](C)C(=O)N[C@@H](CCSC)C(=O)N[C@@H](CCCNC(=N)N)C(=O)N[C@@H](CCCCN)C(=O)N2)NC(=O)[C@H](CSSC[C@@H](C(=O)N[C@@H](CCCCN)C(=O)N[C@@H](Cc2ccc(O)cc2)C(=O)N[C@H](C(=O)N[C@@H](Cc2ccccc2)C(N)=O)C(C)C)NC(=O)[C@H](Cc2c[nH]c4ccccc24)NC(=O)[C@H](CCCCN)NC(=O)[C@H](Cc2c[nH]cn2)NC(=O)[C@H]([C@@H](C)O)NC(=O)[C@H](CCCNC(=N)N)NC(=O)[C@H](CO)NC3=O)NC(=O)[C@H](CCCCN)NC(=O)[C@H](CC(=O)O)NC(=O)[C@H](CC(N)=O)NC(=O)[C@H](CC(=O)O)NC(=O)[C@@H]2CCCN2C1=O` [compound 422] (H-DCLGAMRKCIPDNDKCCRPWLVCSRTHKWCKYVF-NH2; disulfide 2-17, 9-23, 16-30): the IC50 at hNav1.5 (use-dependent block, hNav1.5) is > 5000 nM; on hNav1.3 (use-dependent block, hNav1.3), 390 nM; at hNav1.7 (setting [1]), 280 nM.

With `CC[C@H](C)[C@@H]1NC(=O)[C@@H]2CSSC[C@@H]3NC(=O)[C@H](C(C)C)NC(=O)[C@H](CC(C)C)NC(=O)[C@H](CC(N)=O)NC(=O)[C@@H]4CCCN4C(=O)[C@H](CCCNC(=N)N)NC(=O)[C@H](CSSC[C@H](NC(=O)[C@@H](N)CC(=O)O)C(=O)N[C@@H](CC(C)C)C(=O)NCC(=O)N[C@@H](Cc4ccccc4)C(=O)N[C@@H](CCSC)C(=O)N[C@@H](CCCNC(=N)N)C(=O)N[C@@H](CCCCN)C(=O)N2)NC(=O)[C@H](CSSC[C@@H](C(=O)N[C@@H](CCCCN)C(=O)N[C@@H](Cc2ccc(O)cc2)C(=O)N[C@H](C(=O)N[C@@H](Cc2ccccc2)C(N)=O)C(C)C)NC(=O)[C@H](Cc2c[nH]c4ccccc24)NC(=O)[C@H](CCCCN)NC(=O)[C@H](Cc2c[nH]cn2)NC(=O)[C@H](CCC(N)=O)NC(=O)[C@H](CCCNC(=N)N)NC(=O)[C@H](CO)NC3=O)NC(=O)[C@H](CCCCN)NC(=O)[C@H](CC(=O)O)NC(=O)[C@H](CC(N)=O)NC(=O)[C@H](CC(=O)O)NC(=O)[C@@H]2CCCN2C1=O` [compound 339] (H-DCLGFMRKCIPDNDKCCRPNLVCSRQHKWCKYVF-NH2; disulfide 2-17, 9-23, 16-30), the IC50 was 17900 nM at hNav1.5 (Table 22, use, […]); 90 nM on hNav1.3 (Table 22, use, […]); 140 nM at hNav1.7 (Table 22, IonWorks Quattro, use, […], read-out: IWQ Use Nav1.7).

For `CC[C@H](C)[C@@H]1NC(=O)[C@@H]2CSSC[C@@H]3NC(=O)[C@H](C(C)C)NC(=O)[C@H](CC(C)C)NC(=O)[C@H](CC(N)=O)NC(=O)[C@@H]4CCCN4C(=O)[C@H](CCCNC(=N)N)NC(=O)[C@H](CSSC[C@H](NC(=O)[C@@H](N)CC(=O)O)C(=O)N[C@@H](CC(C)C)C(=O)NCC(=O)N[C@@H](CCC(C)C)C(=O)N[C@@H](CCSC)C(=O)N[C@@H](CCCNC(=N)N)C(=O)N[C@@H](CCCCN)C(=O)N2)NC(=O)[C@H](CSSC[C@@H](C(=O)N[C@@H](CCCCN)C(=O)N[C@@H](Cc2ccc(O)cc2)C(=O)N[C@H](C(=O)N[C@@H](Cc2ccccc2)C(N)=O)C(C)C)NC(=O)[C@H](Cc2c[nH]c4ccccc24)NC(=O)[C@H](CCCCN)NC(=O)[C@H](Cc2c[nH]cn2)NC(=O)[C@H]([C@@H](C)O)NC(=O)[C@H](CCCNC(=N)N)NC(=O)[C@H](CO)NC3=O)NC(=O)[C@H](CCCCN)NC(=O)[C@H](CC(=O)O)NC(=O)[C@H](CC(N)=O)NC(=O)[C@H](CC(=O)O)NC(=O)[C@@H]2CCCN2C1=O` [compound 679], the IC50 on hNav1.5 (use-dependent protocol, hNav1.5) is > 5000 nM; at hNav1.3 (use-dependent protocol, hNav1.3) it was 240 nM; at hNav1.7 (IonWorks Quattro, use-dependent protocol, hNav1.7, read-out: IWQ Use Nav1.7) it was 86 nM.

As to `CC[C@H](C)[C@@H]1NC(=O)[C@@H]2CSSC[C@@H]3NC(=O)[C@H](C(C)C)NC(=O)[C@H](CC(C)C)NC(=O)[C@H](CC(N)=O)NC(=O)[C@@H]4CCCN4C(=O)[C@H](CCCNC(=N)N)NC(=O)[C@H](CSSC[C@H](NC(=O)[C@@H](N)CC(=O)O)C(=O)N[C@@H](CC(C)C)C(=O)NCC(=O)N[C@@H](Cc4ccccn4)C(=O)N[C@@H](CCSC)C(=O)N[C@@H](CCCNC(=N)N)C(=O)N[C@@H](CCCCN)C(=O)N2)NC(=O)[C@H](CSSC[C@@H](C(=O)N[C@@H](CCCCN)C(=O)N[C@@H](Cc2ccc(O)cc2)C(=O)N[C@H](C(=O)N[C@@H](Cc2ccccc2)C(N)=O)C(C)C)NC(=O)[C@H](Cc2c[nH]c4ccccc24)NC(=O)[C@H](CCCCN)NC(=O)[C@H](Cc2c[nH]cn2)NC(=O)[C@H]([C@@H](C)O)NC(=O)[C@H](CCCNC(=N)N)NC(=O)[C@H](CO)NC3=O)NC(=O)[C@H](CCCCN)NC(=O)[C@H](CC(=O)O)NC(=O)[C@H](CC(N)=O)NC(=O)[C@H](CC(=O)O)NC(=O)[C@@H]2CCCN2C1=O` [SEQ ID NO: 277], the IC50 amounted to 9250 nM on hNav1.5 (setting [2]); 4580 nM on hNav1.3 (setting [2]); 2070 nM on hNav1.7 (IonWorks Quattro, clamped to −110 mV, depolarized to −10 mV, 5 min after compound, n=2, read-out: IWQ Use Nav1.7).

With `CC[C@H](C)[C@@H]1NC(=O)[C@@H]2CSSC[C@@H]3NC(=O)[C@H](C(C)C)NC(=O)[C@H](CC(C)C)NC(=O)[C@H](CC(N)=O)NC(=O)[C@@H]4CCCN4C(=O)[C@H](CCCNC(=N)N)NC(=O)[C@H](CSSC[C@H](NC(=O)[C@@H](N)CC(=O)O)C(=O)N[C@@H](CC(C)C)C(=O)NCC(=O)N[C@@H](C)C(=O)N[C@@H](Cc4ccccc4)C(=O)N[C@@H](CCCNC(=N)N)C(=O)N[C@@H](CCCCN)C(=O)N2)NC(=O)[C@H](CSSC[C@@H](C(=O)N[C@@H](CCCCN)C(=O)N[C@@H](Cc2ccc(O)cc2)C(=O)N[C@H](C(=O)N[C@@H](Cc2ccccc2)C(=O)O)C(C)C)NC(=O)[C@H](Cc2c[nH]c4ccccc24)NC(=O)[C@H](CO)NC(=O)[C@H](Cc2c[nH]cn2)NC(=O)[C@H]([C@@H](C)O)NC(=O)[C@H](CCCNC(=N)N)NC(=O)[C@H](CO)NC3=O)NC(=O)[C@H](CCCCN)NC(=O)[C@H](CC(=O)O)NC(=O)[C@H](CC(N)=O)NC(=O)[C@H](CC(=O)O)NC(=O)[C@@H]2CCCN2C1=O` [compound 835] (H-DCLGAFRKCIPDNDKCCRPNLVCSRTHSWCKYVF-OH; disulfide 2-17, 9-23, 16-30), the IC50 is > 5000 nM on hNav1.5 (use-dependent block, hNav1.5); > 5000 nM on hNav1.3 (use-dependent block, hNav1.3); > 5000 nM on hNav1.7 (setting [1]).

Consider `CC[C@H](C)[C@@H]1NC(=O)[C@@H]2CSSC[C@@H]3NC(=O)[C@H](C(C)C)NC(=O)[C@H](CC(C)C)NC(=O)[C@H](CC(N)=O)NC(=O)[C@@H]4CCCN4C(=O)[C@H](CCCNC(=N)N)NC(=O)[C@H](CSSC[C@H](NC(=O)[C@@H](N)CC(=O)O)C(=O)N[C@@H](CC(C)C)C(=O)NCC(=O)N[C@@H](Cc4cccnc4)C(=O)N[C@@H](Cc4ccccc4)C(=O)N[C@@H](CCCNC(=N)N)C(=O)N[C@@H](CCCCN)C(=O)N2)NC(=O)[C@H](CSSC[C@@H](C(=O)N[C@@H](CCCCN)C(=O)N[C@@H](Cc2ccc(O)cc2)C(=O)N[C@H](C(=O)N[C@@H](Cc2ccccc2)C(N)=O)C(C)C)NC(=O)[C@H](Cc2c[nH]c4ccccc24)NC(=O)[C@H](CCCCN)NC(=O)[C@H](Cc2c[nH]cn2)NC(=O)[C@H]([C@@H](C)O)NC(=O)[C@H](CCCNC(=N)N)NC(=O)[C@H](CO)NC3=O)NC(=O)[C@H](CCCCN)NC(=O)[C@H](CC(=O)O)NC(=O)[C@H](CC(N)=O)NC(=O)[C@H](CC(=O)O)NC(=O)[C@@H]2CCCN2C1=O` [compound 613] (H-DCLG[3Pal]FRKCIPDNDKCCRPNLVCSRTHKWCKYVF-NH2; disulfide 2-17, 9-23, 16-30), for which the IC50 came to 18700 nM on hNav1.5 (use-dependent block, hNav1.5); 3600 nM on hNav1.3 (use-dependent block, hNav1.3); 950 nM on hNav1.7 (setting [1]).
